Data taken from US5614562A, “Method of treating drug resistant tumor cells using organoselenones” (The University of Sourthern California, priority 1992, dated 1997).
Values after ≈ are worked out from the molar mass of the structure shown. Where two headings read alike, the source gives them in different places.

Experiments:
L1210/L-PAM [1] = assay: Cytotoxicity, 48-hr exposure of L-PAM resistant L1210/L-PAM leukemia cells; assay type: cell-based, murine; details: 48-hr exposure; for IC50: read-out: IC50 L1210/L-PAM
Source text: (§1) Murine L1210 leukemia cells sensitive (L1210/0) and resistant (L1210/L-PAM)to L-phenylalanine mustard were obtained that are adaptable to either in vitro or in vivo passage.
(§2) Broad resistance of the L1210/L-PAM cell line is shown by the approximately 4-fold and 9-fold increases in IC50, compared to L1210/0, for L-PAM and mechlorethamine, respectively (Comparative Examples 3 and 4). […].

L1210/0 [2] = assay: Cytotoxicity, 48-hr exposure of L1210/0 leukemia cells; assay type: cell-based, murine; details: 48-hr exposure, read-out: IC50 L1210/0
Source text: as §1, §2

[3] = methanol, 35° C.; cited from earlier work
HCT/VP35 = assay: In vitro cytotoxicity, VP16 resistant HCT/VP35 human colon carcinoma; assay type: cell-based; details: for IC50: Homo sapiens, HCT/VP35, VP16 resistant, data provided by Bristol-Myers Laboratories; for ratio of IC50 values HCT/VP35 vs HCT116: IC50 divided by IC50 for HCT116; for fold increase in IC50, HCT/VP35: vs HCT116
Source text: | HCT/VP35 human colon, VP16 resistant

HCT116 = assay: In vitro cytotoxicity, HCT116 human colon carcinoma; assay type: cell-based; details: Homo sapiens, HCT-116; data provided by Bristol-Myers Laboratories
Source text: ^b Cell lines: HCT116 human colon (sensitive to VP16 and VM26)

HCT/VM46 = assay: In vitro cytotoxicity, VM26 resistant HCT/VM46 human colon carcinoma; assay type: cell-based; details: for IC50: Homo sapiens, VM26 resistant, data provided by Bristol-Myers Laboratories; for ratio of IC50 values HCT/VM46 vs HCT116: IC50 divided by IC50 for HCT116; for fold increase in IC50, HCT/VM46: vs HCT116
Source text: | HCT/VM46 human colon, VM26 resistant

[4] = test system: HT29 human colon carcinoma cells; assay: Growth inhibition cytotoxicity against HT29 human colon carcinoma cells (MER(+)); assay type: cell-based; details: HT-29
Source text: (Example 15) These cells are very high in the alkyltransferase enzyme for repair of DNA guanine O6-alkyl products, and therefore are considered strongly MER(+) in phenotype. Levels of this enzyme in HT29 cells have averaged about 0.5 pmol/mg protein in recent studies (K. Chan, et al., unpublished). […] Thus, the lack of cross-resistance to ethyleneimines by the present invention of 2-chloroethyl aryl selenones is not associated with resistence mediated by the alkyltransferase repair enzyme.

L1210/L-PAM [5] = details: L1210/L-PAM line; cited from earlier work
L1210/0 [6] = details: cited from earlier work

CS(=O)(=O)OCCC[Se]c1ccccc1 [PhSeCH2 CH2 CH2 OMs]
Ratio of IC50s (L1210/L-PAM vs L1210/0) (L1210/L-PAM [1]): 1.9
IC50 (L1210/L-PAM [1]; Mus musculus, L1210/LPAM): 100 µM
IC50 (L1210/0 [2]; Mus musculus, L1210/0): 52 µM

C[Se](=O)(=O)c1ccccc1 [PhSeO2 CH3]
reactivity in methylation of dimethylsulfide [3]: three times as reactive as methyl iodide

COc1cc([C@@H]2c3cc4c(cc3[C@@H](O[C@@H]3O[C@@H]5CO[C@@H](c6cccs6)O[C@H]5[C@H](O)[C@H]3O)[C@H]3COC(=O)[C@H]23)OCO4)cc(OC)c1O [VM-26 (Teniposide), Teniposide]
IC50 (HCT/VP35): 0.53 µg/mL (≈ 0.807 µM)
ratio of IC50 values HCT/VP35 vs HCT116 (HCT/VP35): 15.1
fold increase in IC50, HCT/VP35 (HCT/VP35): 15.1 fold
IC50 (HCT116): 0.035 µg/mL (≈ 0.0533 µM)
IC50 (HCT/VM46): 0.17 µg/mL (≈ 0.259 µM)
ratio of IC50 values HCT/VM46 vs HCT116 (HCT/VM46): 4.9
fold increase in IC50, HCT/VM46 (HCT/VM46): 4.9 fold

COc1cc([C@@H]2c3cc4c(cc3[C@@H](O[C@@H]3O[C@@H]5CO[C@@H](C)O[C@H]5[C@H](O)[C@H]3O)[C@H]3COC(=O)[C@H]23)OCO4)cc(OC)c1O [VP-16 (Etoposide), Etoposide]
IC50 (HCT/VP35): 4.62 µg/mL (≈ 7.85 µM)
ratio of IC50 values HCT/VP35 vs HCT116 (HCT/VP35): 10.0
fold increase in IC50, HCT/VP35 (HCT/VP35): 10.0 fold
IC50 (HCT116): 0.46 µg/mL (≈ 0.782 µM)
IC50 (HCT/VM46): 1.48 µg/mL (≈ 2.51 µM)
ratio of IC50 values HCT/VM46 vs HCT116 (HCT/VM46): 3.2
fold increase in IC50, HCT/VM46 (HCT/VM46): 3.2 fold

NC(=O)N(CCCl)N=O [chloroethylnitrosourea (CNU), chloroethylnitrosourea, reference compound]
IC50 [4]: 250 µM

O=P1(N(CCCl)CCCl)NCCCO1 (centres unmarked) [cyclophosphamide]
in vivo resistance (log cell kill differential) (L1210/L-PAM [5]): > 2 log
sensitivity of parent L1210/0 line (L1210/0 [6]): sensitive

S=P(N1CC1)(N1CC1)N1CC1 [thioTEPA]
in vivo resistance (log cell kill differential) (L1210/L-PAM [5]): 4 log
sensitivity of parent L1210/0 line (L1210/0 [6]): sensitive

(CH3)2 NCSeCH2 CH2 Cl
Ratio of IC50s (L1210/L-PAM vs L1210/0) (L1210/L-PAM [1]): 1.7
IC50 (L1210/L-PAM [1]): 30 µM
IC50 (L1210/0 [2]): 18 µM
